The source of these data is ChEMBL document CHEMBL5390237, “Discovery of Selective Histone Deacetylase 1 and 2 Inhibitors: Screening of a Focused Library Constructed by Click Chemistry, Kinetic Binding Analysis, and Biological Evaluation” (J Med Chem, 2023).

The term inhibition denotes the relative decrease from the control value, in per cent.

Sequence of Histone deacetylase 2 (Q92769 whole entry): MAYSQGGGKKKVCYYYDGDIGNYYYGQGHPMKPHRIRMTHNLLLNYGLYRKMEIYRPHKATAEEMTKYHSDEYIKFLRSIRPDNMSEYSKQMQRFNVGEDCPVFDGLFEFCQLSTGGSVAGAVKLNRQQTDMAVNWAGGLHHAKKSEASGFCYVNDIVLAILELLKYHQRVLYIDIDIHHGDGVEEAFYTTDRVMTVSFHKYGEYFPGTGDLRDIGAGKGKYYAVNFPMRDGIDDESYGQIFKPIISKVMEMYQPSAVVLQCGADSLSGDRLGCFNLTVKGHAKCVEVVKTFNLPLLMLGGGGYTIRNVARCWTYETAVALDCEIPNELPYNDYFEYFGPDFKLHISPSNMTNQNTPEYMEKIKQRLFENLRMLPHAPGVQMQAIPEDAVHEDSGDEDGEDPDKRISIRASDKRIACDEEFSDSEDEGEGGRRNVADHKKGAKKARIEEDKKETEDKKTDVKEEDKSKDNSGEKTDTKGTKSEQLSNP

This assay concerns the target Histone deacetylase 2 (Homo sapiens, UniProt Q92769). The assay can be described thus: Inhibition of full-length recombinant human C-terminal GST tagged HDAC2 expressed in Sf9 insect cells using aminoluciferin peptide substrate at 100 nM preincubated for 3 hrs followed by substrate addition and measured after 30 mins by HDAC-Glo I/II chemiluminescence assay. As to conditions: time 3.5 hrs.
`Nc1ccc(-c2ccc(F)cc2)cc1NC(=O)c1cn(CCc2ccccc2)nn1`: the inhibition was 17%.
The figure for `Nc1ccc(-c2ccc(F)cc2)cc1NC(=O)CCc1cn(-c2ccc([N+](=O)[O-])cc2)nn1` is 7%; for `Nc1ccc(-c2ccc(F)cc2)cc1NC(=O)c1cn(CCc2ccc([N+](=O)[O-])cc2)nn1` it is 12%.
With `Nc1ccc(-c2ccsc2)cc1NC(=O)CCc1cn(-c2ccc(Br)cc2)nn1`, the inhibition was determined as 3%.
With `Nc1ccc(-c2ccsc2)cc1NC(=O)CCc1cn(CCCCCCCC(=O)O)nn1`, the inhibition is 1%.
As for `Nc1ccc(-c2ccccc2)cc1NC(=O)c1cn(CC(=O)Nc2ccc(F)cc2)nn1`, the inhibition was determined as 0%.
Regarding `Nc1ccc(-c2cccs2)cc1NC(=O)c1cccc(-c2cn(CCCCC(=O)O)nn2)c1`, the inhibition came out at 48%.
For the compound `Nc1ccc(-c2cccnc2)cc1NC(=O)CCc1cn(CCc2ccc([N+](=O)[O-])cc2)nn1`, the inhibition stood at 3%.
The figure for `CCc1ccc(Cn2cc(-c3ccc(C(=O)Nc4cc(-c5cccs5)ccc4N)s3)nn2)cc1` is 2%; for `Nc1ccc(-c2cccs2)cc1NC(=O)c1ccc(-c2cn(CCC3CCCCC3)nn2)cc1` it is 7%.
With `Nc1ccc(-c2cccs2)cc1NC(=O)c1ccc(-c2cn(/C=C/c3ccccc3)nn2)s1` the figure was 5%; with `Nc1ccc(-c2ccccc2)cc1NC(=O)CCc1cn(CCc2ccccc2Cl)nn1`, 0%; with `Nc1ccc(-c2ccc(F)cc2)cc1NC(=O)c1cn(/C=C/c2ccccc2)nn1`, 3%.
The figure for `Nc1ccc(-c2cccs2)cc1NC(=O)c1ccc(-c2cn(CCc3ccccc3[N+](=O)[O-])nn2)s1` is 16%; for `Nc1ccc(-c2ccccc2)cc1NC(=O)CCc1cn(CCCCCc2ccccc2)nn1` it is 0%; for `Nc1ccc(-c2ccccc2)cc1NC(=O)c1cn(CCc2ccc(C(=O)O)cc2)nn1` it is 9%.
As to `Nc1ccc(-c2ccccc2)cc1NC(=O)c1cn(CCc2ccccc2[N+](=O)[O-])nn1`, the inhibition came to 0%.
With `Nc1ccc(-c2cccs2)cc1NC(=O)c1cccc(-c2cn(Cc3cccc(C(=O)O)c3)nn2)c1`, the inhibition worked out at 17%.
The figure for `Nc1ccc(-c2ccccc2)cc1NC(=O)CCc1cn(CCc2cccc(F)c2)nn1` is 1%.
For `COc1ccc(Cn2cc(C(=O)Nc3cc(-c4ccc(F)cc4)ccc3N)nn2)cc1`, the inhibition stood at 19%.
With `Nc1ccc(-c2ccsc2)cc1NC(=O)CCc1cn(Cc2ccc(OC(F)(F)F)cc2)nn1` the figure was 0%; with `Nc1ccc(-c2cccs2)cc1NC(=O)CCc1cn(Cc2ccc3ccccc3n2)nn1`, 22%.
The figure for `CCc1ccc(Cn2cc(C(=O)Nc3cc(-c4ccsc4)ccc3N)nn2)cc1` is 0%; for `Nc1ccc(-c2cccs2)cc1NC(=O)c1ccc(-c2cn(CC3CCCCC3)nn2)s1` it is 0%.
Consider `Nc1ccc(-c2ccccc2)cc1NC(=O)c1cn(CCc2ccc(-c3ccccc3)cc2)nn1`, for which the inhibition was determined as 0%.
With `Nc1ccc(-c2cccs2)cc1NC(=O)c1ccc(-c2cn(CCc3cccc(C(F)(F)F)c3)nn2)cc1` the figure was 3%; with `Cc1cccc(C)c1NC(=O)Cn1cc(CCC(=O)Nc2cc(-c3cccnc3)ccc2N)nn1`, 11%.
With `Nc1ccc(-c2cccnc2)cc1NC(=O)CCc1cn(-c2ccc([N+](=O)[O-])cc2)nn1` the figure was 2%; with `Cc1ccc(-n2cc(-c3ccc(C(=O)Nc4cc(-c5cccs5)ccc4N)s3)nn2)cc1C`, 0%; with `Cc1cccc(C)c1NC(=O)Cn1cc(CCC(=O)Nc2cc(-c3cccs3)ccc2N)nn1`, 19%.
The figure for `Nc1ccc(-c2cccs2)cc1NC(=O)CCc1cn(CCc2cccc(C(F)(F)F)c2)nn1` is 3%; for `Nc1ccc(-c2ccccc2)cc1NC(=O)CCc1cn(CCc2cccc([N+](=O)[O-])c2)nn1` it is 30%; for `Nc1ccc(-c2ccc(F)cc2)cc1NC(=O)CCc1cn(CCc2ccc(Cl)cc2)nn1` it is 3%.
`Nc1ccc(-c2cccs2)cc1NC(=O)c1ccc(-c2cn(CCc3cccc(F)c3)nn2)s1`: the inhibition is 24%.
The figure for `Cc1cccc(CCn2cc(C(=O)Nc3cc(-c4cccs4)ccc3N)nn2)c1` is 11%; for `Nc1ccc(-c2cccs2)cc1NC(=O)c1cn(Cc2ccc(C(=O)O)cc2)nn1` it is 32%; for `COc1ccc(Cn2cc(CCC(=O)Nc3cc(-c4ccccc4)ccc3N)nn2)cc1` it is 6%.
With `Nc1ccc(-c2cccs2)cc1NC(=O)c1ccc(-c2cn(Cc3nc4ccccc4[nH]3)nn2)s1` the figure was 63%; with `Nc1ccc(-c2ccccc2)cc1NC(=O)CCc1cn(CCc2ccccn2)nn1`, 0%.
With `Nc1ccc(-c2cccnc2)cc1NC(=O)CCc1cn(Cc2ccc3ccccc3n2)nn1` the figure was 3%; with `Nc1ccc(-c2cccs2)cc1NC(=O)c1cccc(-c2cn(Cc3nc4ccccc4[nH]3)nn2)c1`, 32%.
Take `Nc1ccc(-c2ccsc2)cc1NC(=O)CCc1cn(-c2ccc([N+](=O)[O-])cc2)nn1`: the inhibition worked out at 0%.
The figure for `Nc1ccc(-c2cccs2)cc1NC(=O)CCc1cn(CC2CCCCC2)nn1` is 0%; for `COc1ccc(CCn2cc(CCC(=O)Nc3cc(-c4ccsc4)ccc3N)nn2)cc1` it is 29%; for `Nc1ccc(-c2cccs2)cc1NC(=O)c1ccc(-c2cn(CCc3ccccc3C(F)(F)F)nn2)cc1` it is 0%.
With `Nc1ccc(-c2ccccc2)cc1NC(=O)c1cn(CCc2ccccc2Cl)nn1` the figure was 0%; with `Nc1ccc(-c2ccsc2)cc1NC(=O)c1cn(CCCCCC(=O)O)nn1`, 0%; with `Nc1ccc(-c2ccccc2)cc1NC(=O)c1cn(CCN2CCc3ccccc3C2)nn1`, 0%.
The figure for `Nc1ccc(-c2ccccc2)cc1NC(=O)CCc1cn(CCc2cccc3ccccc23)nn1` is 0%; for `Nc1ccc(-c2ccc(F)cc2)cc1NC(=O)CCc1cn(CS(=O)(=O)c2ccccc2)nn1` it is 13%; for `Nc1ccc(-c2ccsc2)cc1NC(=O)c1cn(CCc2ccc(F)cc2)nn1` it is 0%.
As to `Nc1ccc(-c2cccnc2)cc1NC(=O)CCc1cn(-c2ccc(Br)cc2)nn1`, the inhibition was found to be 2%.
For `Nc1ccc(-c2ccc(F)cc2)cc1NC(=O)CCc1cn(CC(=O)c2ccccc2)nn1`, the inhibition was determined as 19%.
For `Nc1ccc(-c2ccccc2)cc1NC(=O)CCc1cn(CC(=O)Nc2ccc(F)cc2)nn1`, the inhibition was 11%.
Take `Cc1cccc(C)c1NC(=O)Cn1cc(C(=O)Nc2cc(-c3ccc(F)cc3)ccc2N)nn1`: the inhibition turned out to be 33%.
For `Nc1ccc(-c2ccccc2)cc1NC(=O)CCc1cn(CCC2CCCCC2)nn1`, the inhibition came to 0%.
The figure for `Nc1ccc(-c2cccnc2)cc1NC(=O)CCc1cn(-c2ccc(I)cc2)nn1` is 1%.
As to `Nc1ccc(-c2ccccc2)cc1NC(=O)CCc1cn(-c2ccc([N+](=O)[O-])cc2)nn1`, the inhibition amounted to 0%.
As to `Nc1ccc(-c2cccs2)cc1NC(=O)c1ccc(-c2cn(CCC3CCCC3)nn2)s1`, the inhibition was 0%.
Turning to `Nc1ccc(-c2cccs2)cc1NC(=O)c1ccc(-c2cn(Cc3cccc(-c4ccccc4)c3)nn2)cc1`, the inhibition was found to be 0%.
With `Nc1ccc(-c2ccccc2)cc1NC(=O)c1cn(-c2ccc(O)cc2)nn1` the figure was 0%.
On to `Cc1cccc(C)c1NC(=O)Cn1cc(C(=O)Nc2cc(-c3ccccc3)ccc2N)nn1`, for which the inhibition was 9%.
With `Nc1ccc(-c2ccc(F)cc2)cc1NC(=O)c1cn(CCc2ccc(F)cc2)nn1` the figure was 0%; with `Nc1ccc(-c2ccsc2)cc1NC(=O)CCc1cn(CCc2ccc(C(F)(F)F)cc2)nn1`, 2%.
For the compound `Nc1ccc(-c2ccsc2)cc1NC(=O)c1cn(CCc2ccccc2C(F)(F)F)nn1`, the inhibition is 0%.
With `Nc1ccc(-c2ccsc2)cc1NC(=O)CCc1cn(CCC2CCCC2)nn1` the figure was 0%; with `Nc1ccc(-c2cccs2)cc1NC(=O)c1ccc(-c2cn(CCc3cccc(Cl)c3)nn2)cc1`, 22%; with `Nc1ccc(-c2cccnc2)cc1NC(=O)CCc1cn(Cc2cccc3ccccc23)nn1`, 12%.
Consider `Nc1ccc(-c2ccc(F)cc2)cc1NC(=O)c1cn(CCCc2ccccc2)nn1`, for which the inhibition turned out to be 21%.
With `Nc1ccc(-c2ccccc2)cc1NC(=O)CCc1cn(CCc2cccc(C(F)(F)F)c2)nn1` the figure was 1%; with `Nc1ccc(-c2ccc(F)cc2)cc1NC(=O)CCc1cn(CCc2ccccc2[N+](=O)[O-])nn1`, 20%.
Take `Cc1ccc(CCn2cc(CCC(=O)Nc3cc(-c4cccnc4)ccc3N)nn2)cc1`: the inhibition is 18%.
The figure for `Nc1ccc(-c2ccccc2)cc1NC(=O)CCc1cn(CCc2ccccc2[N+](=O)[O-])nn1` is 13%.
The figure for `Nc1ccc(-c2cccs2)cc1NC(=O)c1ccc(-c2cn(CCc3cccc([N+](=O)[O-])c3)nn2)cc1` is 25%.
On to `Nc1ccc(-c2cccs2)cc1NC(=O)c1ccc(-c2cn(CCc3c[nH]c4ccccc34)nn2)s1`, for which the inhibition worked out at 38%.
The figure for `Nc1ccc(-c2cccs2)cc1NC(=O)c1cccc(-c2cn(CCc3ccc(C(=O)O)cc3)nn2)c1` is 14%; for `Nc1ccc(-c2cccs2)cc1NC(=O)c1cn(CCc2cccc([N+](=O)[O-])c2)nn1` it is 13%.
Regarding `Nc1ccc(-c2cccs2)cc1NC(=O)c1ccc(-c2cn(Cc3ccc(C(=O)O)cc3)nn2)cc1`, the inhibition was 42%.
With `COc1ccc(-n2cc(CCC(=O)Nc3cc(-c4ccccc4)ccc3N)nn2)cc1` the figure was 11%.
Consider `Cc1ccccc1CCn1cc(-c2ccc(C(=O)Nc3cc(-c4cccs4)ccc3N)s2)nn1`, for which the inhibition stood at 14%.
For `Nc1ccc(-c2cccnc2)cc1NC(=O)CCc1cn(CCc2c[nH]c3ccccc23)nn1`, the inhibition stood at 19%.
The figure for `Nc1ccc(-c2cccs2)cc1NC(=O)c1ccc(-c2cn(Cc3cccc(-c4ccccc4)c3)nn2)s1` is 0%.
The figure for `Cc1cccc(CCn2cc(CCC(=O)Nc3cc(-c4ccccc4)ccc3N)nn2)c1` is 27%.
